Experimental data from ChEMBL document CHEMBL1137997, “Synthesis and activity of 1-aryl-1'-imidazolyl methyl ethers as non-thiol farnesyltransferase inhibitors” (Bioorg Med Chem Lett, 2004).

Legend:
[1] = target: Protein farnesyltransferase (Bos taurus, UniProt P29702+P49355); test: Inhibition of bovine farnesyltransferase; type: protein-complex assay
[2] = target: Geranylgeranyl transferase type I (Bos taurus, UniProt P29702+Q5EAD5); test: Inhibition of bovine Geranylgeranyltransferase; type: protein-complex assay
[3] = target: T1, Protein farnesyltransferase (Mus musculus) (UniProt Q61239+Q8K2I1); test: Percent inhibition of H-Ras transformed NIH-3T3-cell proliferation at 100 nM; type: functional, cell-based; conditions: NIH3T3
[4] = target: Protein farnesyltransferase (Mus musculus, UniProt Q61239+Q8K2I1); test: (§1) Inhibition of H-Ras transformed NIH-3T3-cell proliferation; type: functional, cell-based; conditions: nih3t3
[5] = target: T1, Protein farnesyltransferase (Mus musculus); test: as §1; type: functional; conditions: concentration not given here

Row | SMILES | IC50 [1] [nM] | IC50 [2] [nM] | inhibition [3] [%] | EC50 [4] [nM] | inhibition [5] [%]
1 | CC1=C(Br)C=C(C#N)C(=O)C1Cn1cncc1COCc1ccc(C#N)cc1-c1ccc2c(c1)OCO2 (stereo unspecified) | > 1000 |  |  |  | 
2 | N#Cc1ccc(COCc2cncn2Cc2ccc(Cl)cc2)c(-c2ccc3c(c2)OCO3)c1 | 8.3 | > 10000 | 11 |  | 
3 | CCOc1ccc(-c2cc(C#N)ccc2COCc2cncn2Cc2ccc(C#N)cc2)cc1 | 1.2 | 2300 | 52 |  | 
4 | N#Cc1ccc(Cn2cncc2COCc2ccc(C#N)cc2-c2cccc3ccccc23)cc1 | 1.3 | 2300 | 43 |  | 
5 | COc1ccc(-c2cc(C#N)ccc2COCc2cncn2Cc2ccc(C#N)cc2)cn1 | 7.6 | > 10000 | 25 |  | 
6 | N#Cc1ccc(COCc2cncn2Cc2ccc(C#N)cc2-c2cccc3ccccc23)cc1 | 0.96 | 2100 |  |  | 
7 | COc1cccc(-c2cc(C#N)ccc2COCc2cncn2Cc2ccc(C#N)cn2)c1 | 4.4 | > 10000 | 49 |  | 
8 | N#Cc1ccc(Cn2cncc2COCc2ccc(C#N)cc2-c2cccc(Cl)c2)nc1 | 1.7 | 2200 |  |  | 
9 | Cc1ccc(-c2cc(C#N)ccc2COCc2cncn2Cc2ccc(C#N)cc2)cc1C | 0.6 | > 10000 | 53 |  | 
10 | N#Cc1ccc(Cn2cncc2COCc2cnc(C#N)cc2-c2cccc(Cl)c2)cc1 | 4.3 | 810 | 26 |  | 
11 | N#Cc1ccc(Cn2cncc2COCc2ccc(C#N)cc2-c2ccc(OC(F)(F)F)cc2)cc1 | 0.65 | 1300 |  | 52 | 
12 | N#Cc1ccc(Cn2cncc2COc2ccc(C#N)c(-c3cccc4ccccc34)c2)cc1 | 0.38 | 240 |  |  | 
13 | N#Cc1ccc(COCc2cncn2Cc2ccc(C#N)cc2-c2cccc3ccccc23)c(-c2ccc3c(c2)OCO3)c1 | 6.8 | 1400 | 0 |  | 
14 | N#Cc1ccc(Cn2cncc2COCc2ccc(C#N)c(-c3cccc4ccccc34)c2)cc1 | 4.8 | 1300 | 5 |  | 
15 | N#Cc1ccc(Cn2cncc2COCc2ccc(C#N)cc2-c2cccc(Cl)c2)cc1 | 0.37 | 6800 |  | 7.7 | 
16 | N#Cc1ccc(COCc2cncn2Cc2ccc(C#N)nc2)c(-c2cccc(Cl)c2)c1 | 3 | > 10000 | 43 |  | 
17 | COc1cccc(-c2cc(C#N)ccc2COCc2cncn2Cc2ccc(Cl)cc2)c1 | 2.2 | > 10000 | 0 |  | 
18 | CCOc1cccc(-c2cc(C#N)ccc2COCc2cncn2Cc2ccc(C#N)nc2)c1 | 0.58 | > 10000 |  |  | 
19 | N#Cc1ccc(Cn2cncc2COCc2ccc(C#N)cc2-c2ccc(Cl)c(Cl)c2)cc1 | 0.37 | 730 | 10 |  | 

Row | SMILES | IC50 [1] [nM] | IC50 [2] [nM] | inhibition [3] [%] | EC50 [4] [nM] | inhibition [5] [%]
20 | N#Cc1ccc(Cn2cncc2COc2ccc(Cl)cc2-c2cccc(Cl)c2)cc1 | 4 | 1800 | 0 |  | 
21 | Cn1cncc1[C@@](N)(c1ccc(Cl)cc1)c1ccc2c(c1)c(-c1cccc(Cl)c1)cc(=O)n2C [TIPIFARNIB] |  | 1100 |  |  | 
22 | CC(=O)Nc1cccc(-c2cc(C#N)ccc2COCc2cncn2Cc2ccc(C#N)cc2)c1 | 13 |  | 92 |  | 
23 | N#Cc1ccc(OCc2cncn2Cc2ccc(C#N)c(-c3cccc4ccccc34)c2)nc1 | 0.9 | 420 |  |  | 
24 | N#Cc1ccc(Cn2cncc2COCc2ccc(C#N)cc2-c2ccc3c(c2)OCO3)nc1 | 4.7 | 5500 |  |  | 
25 | N#Cc1ccc(Cn2cncc2COCc2ccc(C#N)cc2-c2ccc3ccccc3c2)cc1 | 0.92 | 3400 | 53 |  | 
26 | N#Cc1ccc(Cn2cncc2COCc2ccc(C#N)cc2-c2cccc3c2OCO3)cc1 | 0.81 |  | 54 |  | 
27 | N#Cc1ccc(COCc2cncn2Cc2ccc(C#N)cc2-c2cccc(Cl)c2)c(-c2cccc(Cl)c2)c1 | 10 | 87 | 0 |  | 
28 | N#Cc1ccc(Cn2cncc2COCc2ccc(C#N)cc2-c2cccc(OC(F)(F)F)c2)cc1 | 0.49 | 990 | 54 |  | 
29 | N#Cc1ccc(OCc2cncn2Cc2ccc(C#N)c(-c3cccc4ccccc34)c2)cc1 | 0.32 | 565 | 49 |  | 
30 | COc1cccc(-c2cc(C#N)ccc2COCc2cncn2Cc2ccc(C#N)nc2)c1 | 1.5 | > 10000 | 35 |  | 
31 | CC(=O)c1ccc(-c2cc(C#N)ccc2COCc2cncn2Cc2ccc(C#N)cc2)cc1 | 1.3 | > 10000 |  |  | 
32 | N#Cc1ccc(COCc2cncn2Cc2ccc(C#N)nc2)c(-c2ccc3c(c2)OCO3)c1 | 3 | > 10000 |  |  | 
33 | CCOc1cccc(-c2cc(C#N)ccc2COCc2cncn2Cc2ccc(Cl)cc2)c1 | 1.4 | > 10000 |  |  | 
34 | N#Cc1ccc(Cn2cncc2CNCc2ccc(C#N)c(-c3cccc4ccccc34)c2)cc1 | 0.65 | 220 | 5 |  | 
35 | N#Cc1ccc(Cn2cncc2COCc2ccc(Cl)cc2-c2cccc(Cl)c2)cc1 | 0.62 | 8200 |  |  | 30
36 | CC(C)(C)c1ccc(-c2cc(C#N)ccc2COCc2cncn2Cc2ccc(C#N)cc2)cc1 | 0.44 | 870 | 49 |  | 
37 | N#Cc1ccc(Cn2cncc2COCc2ccc(C#N)cc2-c2ccc(C(F)(F)F)cc2)cc1 | 4.3 | 8600 |  |  | 
38 | CS(=O)(=O)c1ccc(Cn2cncc2COCc2ccc(C#N)cc2-c2cccc(Cl)c2)cc1 | 96 |  |  |  | 
